Experimental data reported in ChEMBL document CHEMBL1201862, “PubChem BioAssay data set” (2004).
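Cells were grown in 96-well plates and exposed to each compound for 48 hours at five concentrations; endpoints were interpolated linearly between bracketing concentrations, or set to the highest concentration if not reached. Here, GI50 denotes the concentration required for 50% inhibition of growth.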 Active and inactive are the calls of the source. No stated cut-off is given here; in the data, active = GI50 up to about 1.1 µM and inactive = higher. Non-standard residues stand in square brackets, D forms with d. Residues, ends and D or L forms follow the SMILES beside them. *: point of attachment. Ac5c = NC1(C(=O)O)CCCC1; Boc = CC(C)(C)OC(=O)*; tBu = CC(C)(C)*

What was measured:
Assay in all cases: NCI-60 cell line screen, 48 h
[1] = test system: A498
[2] = test system: EKVX
[3] = test system: HCC 2998
[4] = test system: HOP-62
[5] = test system: HOP-92
[6] = test system: M14
[7] = test system: MDA-MB-231
[8] = test system: Malme-3M
[9] = test system: NCI-H226
[10] = test system: OVCAR-5
[11] = test system: PC-3
[12] = test system: SF-295
[13] = test system: SK-MEL-2
[14] = test system: SNB-75
[15] = test system: T47D
[16] = test system: UACC-257
[17] = test system: UACC-62
[18] = test system: Hs-578T

SMILES | GI50 [1] | GI50 [2] | GI50 [3] | GI50 [4] | GI50 [5] | GI50 [6] | GI50 [7] | GI50 [8] | GI50 [9] | GI50 [10] | GI50 [11] | GI50 [12] | GI50 [13] | GI50 [14] | GI50 [15] | GI50 [16] | GI50 [17] | GI50 [18]
CCCCCCCCCCCCCCCC(=O)OCC(O)C1OC(=O)C(O)=C1O (stereo not given) | 35.7 µM (inactive) | > 100 µM (inactive) | > 100 µM (inactive) | 31.4 µM (inactive) | < 0.01 µM (active) | 18.8 µM (inactive) | 28.8 µM (inactive) | > 100 µM (inactive) | 22.9 µM (inactive) | 33.9 µM (inactive) | 92 µM (inactive) | 20 µM (inactive) | 34.1 µM (inactive) | 16.1 µM (inactive) | 97.9 µM (inactive) | > 100 µM (inactive) | 27.5 µM (inactive) | 
COC1CC(COCc2ccccc2)CC(OC)O1 (stereo not given) | > 100 µM (inactive) | > 100 µM (inactive) | > 100 µM (inactive) | > 100 µM (inactive) | > 100 µM (inactive) | > 100 µM (inactive) |  |  | > 100 µM (inactive) | > 100 µM (inactive) |  | > 100 µM (inactive) |  | > 100 µM (inactive) | > 100 µM (inactive) | > 100 µM (inactive) | > 100 µM (inactive) | > 100 µM (inactive)
Cc1ccc(S(=O)(=O)ON/N=C2/C3OC3[C@@H]3CCCC[C@H]23)cc1 (stereo not given in full) |  | > 100 µM (inactive) | 71.4 µM (inactive) | > 100 µM (inactive) | > 100 µM (inactive) | > 100 µM (inactive) |  | > 100 µM (inactive) | > 100 µM (inactive) |  |  | 1.19 µM (inactive) | > 100 µM (inactive) | > 100 µM (inactive) |  | 0.692 µM (active) | > 100 µM (inactive) | 
Nc1ccc(C2=Nc3ccccc3SC(c3ccccc3O)C2)cc1 (stereo not given) | 7.13 µM (inactive) | 99.8 µM (inactive) | 32.1 µM (inactive) | 64 µM (inactive) |  | 54.6 µM (inactive) |  | > 100 µM (inactive) | 33.3 µM (inactive) | > 100 µM (inactive) |  | 38 µM (inactive) | > 100 µM (inactive) | 24.7 µM (inactive) |  | 51.9 µM (inactive) | 38.8 µM (inactive) | 
CCOC(=O)C1C(=O)C(=O)N2CCc3c([nH]c4ccccc34)C12 (stereo not given) | > 100 µM (inactive) | > 100 µM (inactive) | > 100 µM (inactive) | > 100 µM (inactive) | > 100 µM (inactive) | > 100 µM (inactive) |  | > 100 µM (inactive) |  | > 100 µM (inactive) |  | > 100 µM (inactive) | > 100 µM (inactive) |  |  |  | > 100 µM (inactive) | 
CCOC(=O)c1sc2c(c1OC(=O)c1ccc(Cl)cc1Cl)c(=O)n(-c1ccccc1)c(=S)n2-c1ccccc1 | 5.08 µM (inactive) | 17.1 µM (inactive) | 24.5 µM (inactive) | 10 µM (inactive) | 3.49 µM (inactive) | 29.4 µM (inactive) | 20.9 µM (inactive) | 22.9 µM (inactive) | 6.73 µM (inactive) | 35.4 µM (inactive) | 7.08 µM (inactive) | 6.76 µM (inactive) | 3.97 µM (inactive) | 7.01 µM (inactive) | > 35.5 µM (inactive) | 35.3 µM (inactive) | 20 µM (inactive) | 7.48 µM (inactive)
COc1ccc(CNc2cnc3cc(N)ccc3n2)cc1OC |  | > 100 µM (inactive) | > 100 µM (inactive) | > 100 µM (inactive) |  | > 100 µM (inactive) |  | > 100 µM (inactive) | > 100 µM (inactive) | > 10 µM (inactive) |  | > 100 µM (inactive) | > 100 µM (inactive) | > 100 µM (inactive) |  | > 100 µM (inactive) |  | 
CC(=O)OI1NC(=O)c2ccccc21 | > 100 µM (inactive) | > 100 µM (inactive) |  | > 100 µM (inactive) | > 100 µM (inactive) | > 100 µM (inactive) | > 100 µM (inactive) | > 100 µM (inactive) | > 100 µM (inactive) | > 100 µM (inactive) | > 100 µM (inactive) | > 100 µM (inactive) | > 100 µM (inactive) | > 100 µM (inactive) |  |  | > 100 µM (inactive) | > 100 µM (inactive)
COC(=O)c1ccccc1/C=C1\Cc2cc(C)cc(C)c2C1=O | > 100 µM (inactive) | > 100 µM (inactive) | > 100 µM (inactive) | 37.2 µM (inactive) |  |  | > 100 µM (inactive) | > 100 µM (inactive) | > 100 µM (inactive) | > 100 µM (inactive) | > 100 µM (inactive) | > 100 µM (inactive) | > 100 µM (inactive) | 72.4 µM (inactive) | > 100 µM (inactive) | > 100 µM (inactive) | 53.5 µM (inactive) | > 100 µM (inactive)
Cc1cn(C2CC(CCCO)C(CO)O2)c(=O)[nH]c1=O (stereo not given) | > 100 µM (inactive) | > 100 µM (inactive) | > 100 µM (inactive) | > 100 µM (inactive) |  | > 100 µM (inactive) |  | > 100 µM (inactive) |  | > 100 µM (inactive) |  | > 100 µM (inactive) | > 100 µM (inactive) |  |  | > 100 µM (inactive) | > 100 µM (inactive) | 
CCN(CC)/[N+]([O-])=N/OS(=O)(=O)N(C)C | > 100 µM (inactive) | > 100 µM (inactive) | > 100 µM (inactive) | > 100 µM (inactive) | > 100 µM (inactive) | > 100 µM (inactive) | > 100 µM (inactive) | > 100 µM (inactive) | > 100 µM (inactive) | > 100 µM (inactive) |  | > 100 µM (inactive) |  | > 100 µM (inactive) | > 100 µM (inactive) | > 100 µM (inactive) | > 100 µM (inactive) | > 100 µM (inactive)
Cc1c2cc[n+](C)cc2c(C)c2c1[nH]c1ccc(Oc3ccccc3)cc12 |  | 3.61 µM (inactive) | 2.61 µM (inactive) | 0.578 µM (active) | 1.28 µM (inactive) | 4.48 µM (inactive) |  | 1.76 µM (inactive) | 0.492 µM (active) | 3.31 µM (inactive) |  | 0.311 µM (active) | 1.1 µM (active) | 0.44 µM (active) |  | 1.18 µM (inactive) | 1.51 µM (inactive) | 
CC(OC(C)(C)C)C(NC(=O)C(CCCCNC(=O)OC(C)(C)C)NC(=O)C(Cc1c[nH]c2ccccc12)NC(=O)C(N)Cc1ccccc1)C(=O)NC(Cc1ccccc1)C(=O)NC1(C(=O)O)CCCC1 (stereo not given) (H-FWK(Boc)T(tBu)F[Ac5c]-OH; configuration not given here) | > 100 µM (inactive) | > 100 µM (inactive) | > 100 µM (inactive) | > 100 µM (inactive) | > 100 µM (inactive) | > 100 µM (inactive) | > 100 µM (inactive) | > 100 µM (inactive) | > 100 µM (inactive) | > 100 µM (inactive) | > 100 µM (inactive) | > 100 µM (inactive) | > 100 µM (inactive) | > 100 µM (inactive) | 79.4 µM (inactive) | > 100 µM (inactive) | > 100 µM (inactive) | > 100 µM (inactive)
